Experimental data from patent US20150157575A1, “Pharmaceutical Formulations Comprising Vilazodone” (Forest Laboratories Holdings Ltd., priority 2013, published 2015).

Tests used:
[1] = Study 2: single-dose pharmacokinetics in severe hepatic impairment and matched healthy controls; settings: for AUC(0-inf) / Cmax / Tmax / half-life: both, human, plasma, po, 20 mg, vilazodone 20 mg single oral dose; for AUC(0-inf): AUC0-∞
Procedure: The pharmacokinetics, tolerability, and safety of vilazodone were investigated in two separate trials involving participants with hepatic impairment, compared with healthy controls. An Open-label, parallel-group, single-dose pharmacokinetic studies, a single, oral dose of vilazodone (20 mg with increased hardness) was administered to participants with mild, moderate, or severe hepatic impairment or individually matched controls. Outcomes included pharmacokinetic parameters and safety (vital signs, clinical laboratory evaluations, ECG, and adverse events [AEs]). Plasma samples were analyzed using validated LC/MS/MS methods.
Data from two, open-label, parallel-group, single-dose pharmacokinetic studies investigated single-dose vilazodone (20 mg with increased hardness) in participants with hepatic impairment and normal hepatic function. The first study (Study 1) included participants with mild or moderate hepatic impairment and healthy controls. The second study (Study 2) included participants with severe hepatic impairment or healthy participants. These studies were both designed in accordance with the FDA guidance for evaluation of pharmacokinetics in the presence of hepatic impairment. The differences between the study protocols were minimal, so both methodologies are described together, with any differences noted below.
Participants were men and women, 18 to 70 years of age, with a body mass index (BMI) of 18-42 kg/m^2. Women were not pregnant or breastfeeding and agreed to utilize a medically accepted form of contraception during the study (as did men in Study 2). In Study 2, participants were also required to be non-smokers or light smokers (fewer than 10 cigarettes per day; there was no stipulation in Study 1) and to have a sitting pulse rate of 50-100 bpm at screening and prior to dosing on Day 1. […] Each healthy control was matched with a hepatically impaired participant. Control participants in the Study 1 were matched with a hepatically impaired individual according to age (±10 years), sex, and BMI (±15%). Control participants in Study 2 were matched with a hepatically impaired individual according to age (±5 years), sex, and weight (±10%).
Participants with hepatic dysfunction were classified according to the Child-Pugh hepatic dysfunction staging system as having mild (5-6 points) or moderate (7-9 points) hepatic impairment (Study 1), or severe impairment (10-15 points; Study 2). Participants with severe impairment also had chronic liver disease and/or compensated cirrhosis, as evidenced by liver biopsy, computerized tomography or ultrasonic evidence of hepatic fibrosis, clinical evidence of chronic liver disease, or a colloid shift on a liver-spleen scan. Exclusion criteria included the following: a clinical diagnosis or history of depression; treatment with antidepressants, anxiolytics, psychoactive medications (including herbal supplements), other serotonergic drugs, or drugs that inhibit CYP3A4 (eg, ketoconazole, diltiazem, macrolide antibiotics); a hypersensitivity to vilazodone or other SSRIs or 5-HT agonists; history or evidence of alcohol or substance abuse, cancer, human immunodeficiency virus, hepatitis B (Study 1 and healthy controls, both studies) hepatitis C (healthy controls, both studies), or other clinically significant illnesses or medical conditions. Participants with severe hepatic impairment were excluded if they had bleeding diathesis, advanced ascites requiring large-volume paracentesis within 1 week of dosing, esophageal bleeding within the previous 8 weeks, history of portosystemic shunt or hepatic transplant, or evidence of hepatic encephalopathy, hepatorenal syndrome, or other evidence of rapid hepatic deterioration.
Participants were not allowed to have previously taken vilazodone or participated in any clinical investigation requiring repeated blood draws within 60 days of dosing, or donated blood or plasma within 60 or 30 days, respectively.

[2] = clinical; parameters: species or system human; settings: in vivo
Procedure: An open-label, multiple-dose, single-sequence study to evaluate the effect of steady-state carbamazepine XR, 400 mg once daily, a CYP3A4 substrate and inducer, on the pharmacokinetics of steady-state vilazodone 40 mg tablets once daily, with hardness of more than 10 kp and less than 14 kp, preferably about 12 kp as shown in Table 3 (No Tablet Breakage). Vilazodone was co-administered with carbamazepine XR (extended release formulation). Carbamazepine is an antiepileptic drug approved for the treatment of psychomotor and grand mal seizures is metabolized by CYP3A4, and is a CYP3A4 inducer.
All subjects were healthy, nonsmoking male or female volunteers who were 18-45 (Study 2) years of age. Inclusion and exclusion criteria were typical of the criteria used in pharmacokinetic studies in healthy volunteers as known in the art. Inclusion criteria used included agreement to use an effective measure of contraception, body mass index (BMI)>18 and ≦30 kg/m^2 (BMI=18 allowed), normal or clinically non-significant results on physical examination, medical history, serum chemistry, hematology, and urinalysis; negative hepatitis B antigen and C antibody tests, and negative HIV test at screening. Exclusion criteria included clinically significant electrocardiogram results or QT prolongation, clinically significant disease state, history of alcohol abuse, ingestion of food, drink, or drug that may interfere with CYP enzyme activity (e.g., cruciferous vegetables, caffeine, alcohol), known sensitivity to study drug or other drugs from the same class, and use of prohibited concomitant prescription or over-the counter medications.
All volunteers received 4 treatments (A, B, C, and D) in the same, fixed sequence: Treatment A consisted of vilazodone alone on Days 1-9 and was followed by a 14-day washout, Treatment B was carbamazepine XR alone for 19 days (Days 24-42), Treatment C was vilazodone plus carbamazepine XR for 9 days (Days 43-51), and Treatment D was carbamazepine alone for 3 days (Days 52-54). Once-daily doses of study drug were administered in the morning after breakfast; twice-daily doses were administered in the morning after breakfast and 12 hours later in the evening after dinner Study drug was administered within 30 minutes after the end of the corresponding meal.
Blood samples to determine plasma concentrations of vilazodone, M17 (the metabolite of vilazodone), carbamazepine, and carbamazepine-10,11-epoxide (one of the pharmacologically active metabolites of carbamazepine) were collected into tubes pretreated with K2EDTA. For vilazodone and M17 analyses, blood samples (approximately 6 mL) were collected at pre-dose on Days 1, 7, 8, 49, and 50. […] For the analyses of carbamazepine and carbamazepine-10,11-epoxide, blood samples were collected at pre-dose on Days 24, 40, 41, 49 and 50.
Blood samples were centrifuged at no less than 2500 g for 10 minutes at 4° C. within 30 minutes of the sample draw. Plasma was harvested and transferred to polypropylene tubes and flash frozen in a dry ice bath with isopropyl alcohol or methanol. Samples for vilazodone analyses were stored at approximately −70° C. and analyzed. Samples for carbamazepine analyses were stored at −20° C. and analyzed.
Plasma samples were analyzed for vilazodone, M17, carbamazepine and/or carbamazepine-10,11-epoxide concentrations using liquid chromatography coupled with tandem mass spectrometry (LC/MS/MS). For vilazodone and M17, analytes of interest were detected by electrospray ionization mass spectrometry in the negative ion multiple reaction monitoring mode. The assay was linear in the concentration range of 0.5 to 250 ng/mL for vilazodone and 0.25 to 125 ng/mL for M17.
Based on 50 ìL of human plasma with K2EDTA as the anticoagulant, the lower limit of quantification (LLOQ) was 0.5 ng/mL for vilazodone and 0.25 ng/mL for M17. […]

[3] = Control matched to Severe Impairment n = 8
[4] = Severe Impairment n = 4 (who did not vomit)

N#Cc1ccc2[nH]cc(CCCC(=O)O)c2c1 [M17]
AUC(0-inf) [1, 3]: 51.4 ± 21.4 ng·h/mL | AUC(0-inf) [1, 4]: 29.9 ± 8.15 ng·h/mL | Cmax [1, 3]: 1.95 ± 0.56 ng/mL | Cmax [1, 4]: 1.64 ± 0.56 ng/mL | Tmax ([1]; Tmax (mean), Control matched to Severe Impairment n = 8): 6 ± 4.14 h | Tmax ([1]; Tmax (mean), Severe Impairment n = 4 (who did not vomit)): 4.25 ± 1.26 h | Tmax ([1]; Tmax, Median, Control matched to Severe Impairment n = 8): 5 h | Tmax ([1]; Tmax, Median, Severe Impairment n = 4 (who did not vomit)): 4 h | half-life ([1]; t1/2, Control matched to Severe Impairment n = 8): 17.4 ± 4.25 h | half-life ([1]; t1/2, Severe Impairment n = 4 (who did not vomit)): 17.8 ± 9.57 h | ratio of M17 to vilazodone (AUC0-∞) ([1]; normal controls): 0.07 | ratio of M17 to vilazodone (AUC0-∞) ([1]; severe hepatic impairment): 0.05 | mean AUC0-∞ lower than in normal controls ([1]; severe impairment (who did not vomit) vs normal controls, vilazodone 20 mg single dose): approximately 42%

NC(=O)N1c2ccccc2C=Cc2ccccc21 [Carbamazepine, carbamazepine]
concentration at 42 day ([2]; both sexes, human, Cavg, ss, Mean (SD)): 5500 ng/mL | Tmax ([2]; both sexes, human, tmax, Median (min-max)): 10 h

NC(=O)N1c2ccccc2C2OC2c2ccccc21 (centres unmarked) [carbamazepine-10,11-epoxide]
tmax, Median (min-max) ([2]; human): 12.0 h | Cavg, ss, Mean (SD) [2]: 0.6 (0.2) μg/mL
